Results taken from patent US9884891B2, “KISS1R receptor agonist compounds and use thereof for inducing ovulation in mammals” (INSTITUT NATIONAL DE LA RECHERCHE AGRONOMIQUE, priority 2013, dated 2018).
Read-outs that look alike come from different tables or passages of the source. Where a SMILES comes first, the peptide text is derived from it.

What was measured:
plasma LH concentration = experiment: In vivo activity test: plasma LH concentration in ewes after injection of the peptide compound; design: species or system ewes of the Ile de France breed; conditions: for increase in the plasma concentration of LH (% of Comp.1 maximum stimulation): FIG. 4
Description: The tests were carried out on ewes of the Ile de France breed, either in the anestrus period for the comparative compounds Comp.1 and Comp.3, or in the estrus period for the comparative compound Comp.1 and for the compounds in accordance with the invention C1, C4 and C6. The ewes used in the estrus period were pretreated with a vaginal sponge containing 20 mg of fluorogestone acetate (Chronogest CR sponge, Intervet) in order to block the secretion of LH and to stimulate a luteal phase.
Five days after the insertion of the sponge (for the animals in the estrus period) or the day before the test (for the animals in the anestrus period), a catheter was inserted into the jugular vein of the animal. On the day of the test, the peptide compound to be tested was injected into the catheter, at the desired dose (5 nmol/ewe), diluted in 1 ml of physiological solution. Physiological saline containing heparin (3 ml) was injected immediately after the peptide compound in order to rinse the catheter and to carry all of the compound into the animal's bloodstream.
A negative control (T) consisting of physiological solution alone was also carried out.
Before and following the injection of the test compound, blood samples were taken at variable intervals between 10 min and 1 h, for a period of between 3 h and 30 h.
The blood samples were centrifuged, and the plasma was stored at −20° C. until it was used to measure the LH concentration, according to an RIA method described in the literature (Caraty et al., 2007).
The tests were carried out on ewes of the Ile de France breed in the anestrus period, in the same way as above with reference to the 1st experiment (without any treatment with progesterone). In particular, for all the animals, the day before the test, a catheter was inserted into the jugular vein of the animal. On the day of the test, the peptide compound to be tested was injected into the catheter, at the desired dose (5 nmol/ewe), diluted in 1 ml of physiological solution.
The tests were carried out on ewes of the Ile de France breed in the anestrus period, as indicated above with reference to the 1st experiment (without any treatment with progesterone). In particular, for all the animals, the day before the test, a catheter was inserted into the jugular vein of the animal. On the day of the test, the peptide compound to be tested was injected into the catheter, at the desired dose, diluted in 1 ml of physiological solution. For each compound, the following three doses were tested: 1 nmol/ewe, 5 nmol/ewe and 15 nmol/ewe. […]
Before and following the injection of the test compound, blood samples were taken at variable intervals between 10 min and 1 h, for a period of 10 h.
The blood samples were centrifuged, and the plasma was stored at −20° C. until it was used to measure the LH concentration, according to the RIA method described in the literature (Caraty et al., 2007).

[1] = Test for proteolytic degradation of the peptide compounds in ovine serum; type: in vitro ADME, ewes of the Ile de France breed; conditions: for remaining at 3 h, 50 μM: female, Ile de France, sheep
Description: In order to carry out this test, blood was collected from the jugular vein of ewes of the Ile de France breed, and centrifuged. The supernatant (serum) was stored at −20° C. until use.
The degradation in this serum of the various peptide compounds in accordance with the invention and of the comparative peptide compounds is monitored over time. To this effect, each peptide compound to be analyzed and the internal calibrant (L-phenylalaninol) are dissolved in milliQ water (0.5 mM and 6.6 mM, respectively). The commercial protease inhibitor cocktail (Sigma, ref. P8340) is supplied in solution in DMSO.
The serum and the stock solutions of peptide compounds are preheated at 39° C. for 30 minutes. Each solution of peptide compound (50 μl, i.e. a final concentration in the serum of 50 μM) and the solution of internal calibrant (25 μl) are mixed with 425 μl of serum and incubated at 39° C. The proteolytic degradation kinetics of the compounds are monitored by taking a sample, at various given times, of 75 μl of the solution, which are diluted with 150 μL of acetonitrile in order to precipitate the serum proteins. The suspension obtained is centrifuged at 14 000 revolutions/min for 10 min at 4° C.
The amount of peptide compound intact after incubation is determined by integration of the area of the peak, using L-phenylalaninol as internal calibrant. It is expressed as % of the area of the peak at time t=0.
The value corresponding to 100% of intact peptide compound is obtained by mixing 420 μl of serum, 5 μl of the inhibitor cocktail and 25 μl of the phenylalaninol solution, followed by 50 μl of peptide compound, and then by immediately treating the resulting solution according to the protocol described above.

human KISS1R receptor = target: T1, human KISS1R receptor (Homo sapiens, UniProt Q969F8); experiment: Intracellular calcium mobilization test in HEK293A cells expressing human KISS1R; type: cell-based
T1 construct: expressed in transfected cells
T1 sequence (Q969F8 whole entry): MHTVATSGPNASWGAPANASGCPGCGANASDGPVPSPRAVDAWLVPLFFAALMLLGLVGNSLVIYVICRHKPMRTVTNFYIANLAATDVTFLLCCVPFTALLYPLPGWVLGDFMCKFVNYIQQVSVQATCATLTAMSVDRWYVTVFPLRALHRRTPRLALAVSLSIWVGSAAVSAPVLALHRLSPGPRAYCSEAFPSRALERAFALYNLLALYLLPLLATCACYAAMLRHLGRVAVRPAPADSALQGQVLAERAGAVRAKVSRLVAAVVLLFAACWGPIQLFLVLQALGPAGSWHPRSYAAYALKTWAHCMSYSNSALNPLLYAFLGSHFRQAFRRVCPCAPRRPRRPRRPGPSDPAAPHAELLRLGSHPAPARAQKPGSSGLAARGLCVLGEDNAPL
Description: In order to carry out the in vitro tests for the activity of the peptide compounds in accordance with the invention and the comparative compounds, the HEK293A cell line (ATCC, American Type Culture Collection, Manassas, Va., USA) was stably transfected with the human KISS1R receptor (Genbank accession number: NM_032551). The pcDNA3.1 vector (Invitrogen, Cergy Pontoise, France), into which the sequence of human KISS1R has been inserted with a 5′ HA tag at position 957-2150 bp, was used for the transfection. The transfection and the selection of the clones were carried out as described in the literature (Mancini et al. 2009, and Invitrogen website).
In order to verify the agonist activity and to measure the EC50 of the peptide compounds according to the invention, the following protocol was carried out.
HEK293A cells expressing the human KISS1R receptor were seeded into a 96-well plate (μClear® black plate) at the concentration of 40 000 cells/well, and placed in an incubator at 37° C. After 48 hours, the medium was changed and the cells were incubated with the fluorescent dye Fluo-4NW, according to the instructions of the manufacturer (Molecular Probe).
After having measured the basal fluorescence, 5 μl of the 20× solution containing the test compound were added to each well (containing 95 μl) so as to obtain the desired concentration. The variations in fluorescence were recorded every 7 seconds for 5-7 minutes with a plate reader (PolarStar Optima, BMG Labtech). Activity-concentration curves were generated using the GraphPad Prism 5 software, and the EC50 of each compound was calculated by adjusting the curve to a sigmoid.

LH peak / ovulation = conditions: cited from earlier work
[2] = 1st experiment, ewes in the estrus period, 5 nmol/ewe intravenous
[3] = 2nd experiment, ewes in the anestrus period, 5 nmol/ewe intravenous, FIGS. 6a-6d
[4] = intravenous, ewes at the end of the follicular phase

Compound: CC(C)C[C@@H](C(=O)N[C@@H](CCCNC(=N)N)C(=O)N[C@@H](Cc1ccc(O)cc1)C(N)=O)n1cc(CNC(=O)[C@H](Cc2ccccc2)NC(=O)[C@H](CO)NC(=O)[C@H](CC(N)=O)NC(=O)[C@H](Cc2c[nH]c3ccccc23)NC(=O)[C@H](CC(N)=O)NC(=O)[C@@H](N)Cc2ccc(O)cc2)nn1 [Compound C1, H-Tyr-Asn-Trp-Asn-Ser-Phe-GlyΨ[Tz]Leu-Arg-Tyr-NH2] (HELM PEPTIDE1{Y.N.W.N.S.F.[CC(C)C[C@@H](C(=O)[*:2])n1cc(CN[*:1])nn1].R.Y.[am]}$$$$V2.0)
- increase in the plasma concentration of LH (% of Comp.1 maximum stimulation) (plasma LH concentration; [2]): more active than the comparative compounds Comp.1 and Comp.3
- duration of action (LH concentration over time) (plasma LH concentration; [3]): sustained for longer over time than the comparative compounds Comp.1 and Comp.3

Compound: Ac-YNWNSFGLRY-NH2 [Comp. 3, reference compound]
- remaining at 3 h, 50 μM ([1]; ovine serum, 39° C., 50 μM, 3 h, % of the area of the HPLC peak at time t = 0, read-out: % of peptide intact after 3 h of incubation in the serum): 11%
- human KISS1R-stimulating power (in words) (human KISS1R receptor; calcium mobilization, compared with Comp.1): more powerful than Comp.1 (mKP10) in vitro
- efficiency and duration of the elevation of the plasma LH concentration (plasma LH concentration; 1st experiment, ewes in the anestrus period, 5 nmol/ewe intravenous, FIG. 3, versus Comp.1): only minimally increases

Compound: CCCCCCCCCCCCCCCC(=O)N[C@@H](CCC(=O)NCCCC[C@H](NC(=O)[C@H](Cc1ccc(O)cc1)NC(C)=O)C(=O)N[C@@H](Cc1c[nH]c2ccccc12)C(=O)N[C@@H](CC(N)=O)C(=O)N[C@@H](CO)C(=O)N[C@@H](Cc1ccccc1)C(=O)NCc1cn([C@@H](CC(C)C)C(=O)N[C@@H](CCCNC(=N)N)C(=O)N[C@@H](Cc2ccc(O)cc2)C(N)=O)nn1)C(=O)O [Compound C8, Ac-Tyr-Lys(γ-(N-hexadecanoyl-Glu-OH))-Trp-Asn-Ser-Phe-GlyΨ[Tz]Leu-Arg-Tyr-NH2] (HELM PEPTIDE1{[ac].Y.K.W.N.S.F.[CC(C)C[C@@H](C(=O)[*:2])n1cc(CN[*:1])nn1].R.Y.[am]}|PEPTIDE2{[CCCCCCCCCCCCCCCC(=O)[*:2]].[gGlu]}$PEPTIDE1,PEPTIDE2,3:R3-2:R2$$$V2.0)
- duration of action (LH concentration over time) (plasma LH concentration; 3rd experiment, ewes in the anestrus period, 1, 5 and 15 nmol/ewe intravenous, FIGS. 8a, 8b): even further sustained over time, and very significantly, than the compound C2
- LH secretion (AUC) (plasma LH concentration; 3rd experiment, ewes in the anestrus period, 1, 5 and 15 nmol/ewe intravenous, FIGS. 9a, 9b): even more active than the compound C2
- LH secretion into the plasma after intramuscular injection (plasma LH concentration; 4th experiment, ewes in the estrus period, 15 nmol/ewe intramuscular versus intravenous, FIG. 10): also effective, in vivo, by intramuscular injection

Compound: CNC(=N)NCCC[C@H](NC(=O)[C@H](CC(C)C)n1cc(CNC(=O)[C@H](Cc2ccccc2)NC(=O)[C@H](CO)NC(=O)[C@H](CC(N)=O)NC(=O)[C@H](CCCCNC(C)=O)NC(=O)[C@H](CC(N)=O)NC(=O)[C@H](Cc2ccc(O)cc2)NC(C)=O)nn1)C(=O)N[C@@H](Cc1ccc(O)cc1)C(N)=O [Compound C4, Ac-Tyr-Asn-Lys(Ac)-Asn-Ser-Phe-GlyΨ[Tz]Leu-Arg(Me)-Tyr-NH2] (HELM PEPTIDE1{[ac].Y.N.K.N.S.F.[CC(C)C[C@@H](C(=O)[*:2])n1cc(CN[*:1])nn1].[CNC(=N)NCCC[C@H](N[*:1])C(=O)[*:2]].Y.[am]}|PEPTIDE2{[ac]}$PEPTIDE1,PEPTIDE2,4:R3-1:R2$$$V2.0)
- remaining at 3 h, 50 μM ([1]; serum): 59%
- increase in the plasma concentration of LH (% of Comp.1 maximum stimulation) (plasma LH concentration; [2]): more active than the comparative compounds Comp.1 and Comp.3

Compound: KP10: decapeptide kisspeptin-10, endogenous KISS1R ligand; species form not stated for the cited ewe studies
- induction of an LH peak (LH peak / ovulation; [4]): capable of inducing an LH peak
- synchronization of ovulations (LH peak / ovulation; [4]): synchronized to within one hour
- time from LH peak to ovulations (LH peak / ovulation; [4]): 21 h
- reactivation of the gonadotropic axis and ovulation (LH peak / ovulation; prolonged infusion, period of sexual rest (seasonal anestrus)): capable of reactivating the gonadotropic axis and inducing ovulation

Compound: CC(=O)N[C@@H](Cc1ccc(O)cc1)C(=O)N[C@@H](CC(N)=O)C(=O)N[C@@H](Cc1c[nH]c2ccccc12)C(=O)N[C@@H](CC(N)=O)C(=O)N[C@@H](CO)C(=O)N[C@@H](Cc1ccccc1)C(=O)NCc1cn([C@@H](CC(C)C)C(=O)N[C@@H](CCCNC(=N)N)C(=O)N[C@@H](Cc2ccc(O)cc2)C(N)=O)nn1 [Compound C2, Ac-Tyr-Asn-Trp-Asn-Ser-Phe-GlyΨ[Tz]Leu-Arg-Tyr-NH2] (HELM PEPTIDE1{[ac].Y.N.W.N.S.F.[CC(C)C[C@@H](C(=O)[*:2])n1cc(CN[*:1])nn1].R.Y.[am]}$$$$V2.0)
- lifetime in ovine serum (in words) [1]: clearly prolonged in comparison with that of the comparative peptide compound Comp.3
- remaining at 3 h, 50 μM ([1]; serum): 46%
- total increase in the plasma LH concentration (AUC) over 9 hours (plasma LH concentration; 2nd experiment, ewes in the anestrus period, 5 nmol/ewe intravenous, FIG. 7): significantly more active than the comparative compounds
- duration of action (LH concentration over time) (plasma LH concentration; [3]): sustained for longer over time than the comparative compounds Comp.1 and Comp.3

Compound: CNC(=N)NCCC[C@H](NC(=O)[C@H](CC(C)C)n1cc(CNC(=O)[C@H](Cc2ccccc2)NC(=O)[C@@H](NC(=O)[C@H](CC(N)=O)NC(=O)[C@@H](Cc2c[nH]c3ccccc23)NC(=O)[C@@H](Cc2ccc(O)cc2)NC(C)=O)[C@@H](C)O)nn1)C(=O)N[C@@H](Cc1c[nH]c2ccccc12)C(N)=O [Compound C6, Ac-DTyr-DTrp-Asn-Thr-Phe-GlyΨ[Tz]Leu-Arg(Me)-Trp-NH2] (HELM PEPTIDE1{[ac].[dY].[dW].N.T.F.[CC(C)C[C@@H](C(=O)[*:2])n1cc(CN[*:1])nn1].[CNC(=N)NCCC[C@H](N[*:1])C(=O)[*:2]].W.[am]}$$$$V2.0)
- remaining at 3 h, 50 μM ([1]; serum): 50%
- EC50 (human KISS1R receptor; HEK293A cells expressing human KISS1R, Fluo-4NW, read-out: EC50, intracellular calcium mobilization of cells expressing human KISS1R (Table 2)): 0.01 nM
- increase in the plasma concentration of LH (% of Comp.1 maximum stimulation) (plasma LH concentration; [2]): more active than the comparative compounds Comp.1 and Comp.3
